These results are taken from article PMC12461607, “Profiling polyamine–protein interactions in live cells through photoaffinity labeling” (RSC Chemical Biology, 2025).

For the assay, the target named is T1, TUBA1C (Homo sapiens, UniProt Q9BQE3).
T1 construct: endogenous protein in live HeLa cells, no tag; modified C-terminal peptides 423-449 and 431-449
Nature of the assay: live-cell photoaffinity labelling, biotin enrichment, TMT LC-MS/MS. The conditions noted are these: covalent after UV 365 nm; live HeLa cells; C-terminal acidic region. Format: cell-based.

T1 sequence (Q9BQE3 whole entry): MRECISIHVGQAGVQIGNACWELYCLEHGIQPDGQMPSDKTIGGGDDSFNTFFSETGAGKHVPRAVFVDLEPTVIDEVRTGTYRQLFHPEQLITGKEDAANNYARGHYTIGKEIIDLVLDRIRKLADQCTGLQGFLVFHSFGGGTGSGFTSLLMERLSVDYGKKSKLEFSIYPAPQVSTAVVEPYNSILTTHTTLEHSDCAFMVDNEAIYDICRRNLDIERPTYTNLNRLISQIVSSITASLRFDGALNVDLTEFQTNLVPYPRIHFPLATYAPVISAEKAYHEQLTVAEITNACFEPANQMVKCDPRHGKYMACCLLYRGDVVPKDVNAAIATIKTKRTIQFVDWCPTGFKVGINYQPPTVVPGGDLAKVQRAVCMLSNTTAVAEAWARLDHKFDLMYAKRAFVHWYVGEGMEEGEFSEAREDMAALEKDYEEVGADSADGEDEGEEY

In the case of `C#CCCC1(CCNCCCNCCCCN)N=N1` [compound 5, spermidine analog 5], the “live-cell photoaffinity labelling, biotin enrichment, TMT LC-MS/MS” value is listed as “several tubulins (including TUBA1C)”.
To `C#CCCC1(CCNCCCCNCCCN)N=N1` [compound 4, spermidine analog 4] belongs “several tubulins (including TUBA1C)”.
